According to ChEMBL document CHEMBL1153550, “In vitro study of Candida tropicalis isolates exhibiting paradoxical growth in the presence of high concentrations of caspofungin” (2007):
Converted amounts (≈) assume the structure as drawn. The source made the active and inactive calls. The calls are words filed in the database; no cut-off is given here.

Assays:
[1] = test system: Candida tropicalis; experiment: Antifungal activity against 2 x 10^7 CFU/ml Candida tropicalis isolate 9 in antibiotic medium 3 after 24 hrs by broth microdilution method; assay type: functional; conditions: isolate 9, 24 h
[2] = test system: Candida tropicalis; experiment: Antifungal activity against > 2 x 10^7 CFU/ml Candida tropicalis isolate 10 in antibiotic medium 3 assessed as partial growth after 24 hrs by broth microdilution method; assay type: functional, organism-based
[3] = test system: Candida tropicalis; experiment: Antifungal activity against 10^5 CFU/ml Candida tropicalis isolate 10 in RPMI 1640 medium at 12.5 ug/ml treated for 24 hrs followed by incubation in drug free medium for 48 hrs by broth microdilution method; assay type: functional, organism-based
[4] = test system: Candida tropicalis; experiment: Antifungal activity against Candida tropicalis isolate 13 in RPMI 1640 medium assessed as paradoxical growth at 12.5 ug/ml after 48 hrs by broth microdilution method; assay type: functional, organism-based
[5] = test system: Candida tropicalis; experiment: Antifungal activity against 10^5 CFU/ml Candida tropicalis isolate 1 in RPMI 1640 medium at 12.5 ug/ml treated for 24 hrs followed by incubation in drug free medium for 48 hrs by broth microdilution method; assay type: functional, organism-based
[6] = test system: Candida tropicalis; experiment: Antifungal activity against 2 x 10^7 CFU/ml Candida tropicalis isolate 4 in antibiotic medium 3 after 24 hrs by broth microdilution method; assay type: functional; conditions: isolate 4, 24 h
[7] = test system: Candida tropicalis; experiment: Antifungal activity against > 2 x 10^7 CFU/ml Candida tropicalis isolate 2 in antibiotic medium 3 assessed as partial growth after 24 hrs by broth microdilution method; assay type: functional, organism-based
[8] = test system: Candida tropicalis; experiment: Antifungal activity against 10^5 CFU/ml Candida tropicalis isolate 10 in RPMI 1640 medium at 12.5 ug/ml treated for 48 hrs followed by incubation in drug free medium for 48 hrs by broth microdilution method; assay type: functional, organism-based
[9] = test system: Candida tropicalis; experiment: Antifungal activity against 10^5 CFU/ml Candida tropicalis isolate 4 in RPMI 1640 medium at 0.4 to 12.5 ug/ml treated for 24 hrs followed by incubation in drug free medium for 48 hrs by broth microdilution method; assay type: functional, organism-based
[10] = test system: Candida tropicalis; experiment: Antifungal activity against Candida tropicalis isolate 5 in RPMI 1640 medium assessed as paradoxical growth at 12.5 ug/ml after 24 hrs by broth microdilution method; assay type: functional, organism-based
[11] = test system: Candida tropicalis; experiment: Antifungal activity against 2 x 10^7 CFU/ml Candida tropicalis isolate 14 in RPMI 1640 medium after 24 hrs by broth microdilution method; assay type: functional; conditions: isolate 14, 24 h
[12] = test system: Candida tropicalis; experiment: Antifungal activity against 2 x 10^7 CFU/ml Candida tropicalis isolate 8 in RPMI 1640 medium after 24 hrs by broth microdilution method; assay type: functional; conditions: isolate 8, 24 h
[13] = test system: Candida tropicalis; experiment: Antifungal activity against Candida tropicalis isolate 7 in RPMI 1640 medium assessed as paradoxical growth at 6.25 ug/ml after 48 hrs by broth microdilution method; assay type: functional, organism-based
[14] = test system: Candida tropicalis; experiment: Antifungal activity against 2 x 10^7 CFU/ml Candida tropicalis isolate 1 in antibiotic medium 3 after 24 hrs by broth microdilution method; assay type: functional; conditions: isolate 1, 24 h
[15] = test system: Candida tropicalis; experiment: Antifungal activity against 10^5 CFU/ml Candida tropicalis clinical isolate in antibiotic medium 3 treated for 24 hrs followed by incubation in drug free medium for 48 hrs by broth microdilution method; assay type: functional, organism-based
[16] = test system: Candida tropicalis; experiment: Antifungal activity against > 2 x 10^7 CFU/ml Candida tropicalis isolate 7 in antibiotic medium 3 assessed as partial growth after 24 hrs by broth microdilution method; assay type: functional, organism-based
[17] = test system: Candida tropicalis; experiment: Antifungal activity against 10^5 CFU/ml Candida tropicalis isolate 12 in RPMI 1640 medium at 12.5 ug/ml treated for 48 hrs followed by incubation in drug free medium for 48 hrs by broth microdilution method; assay type: functional, organism-based
[18] = test system: Candida tropicalis; experiment: Antifungal activity against 2 x 10^7 CFU/ml Candida tropicalis isolate 14 in antibiotic medium 3 after 24 hrs by broth microdilution method; assay type: functional; conditions: isolate 14, 24 h
[19] = test system: Candida tropicalis; experiment: Antifungal activity against 10^5 CFU/ml Candida tropicalis isolate 14 in RPMI 1640 medium at 12.5 ug/ml treated for 48 hrs followed by incubation in drug free medium for 48 hrs by broth microdilution method; assay type: functional, organism-based
[20] = test system: Candida tropicalis; experiment: Antifungal activity against 2 x 10^7 CFU/ml Candida tropicalis isolate 13 in RPMI 1640 medium after 24 hrs by broth microdilution method; assay type: functional; conditions: isolate 13, 24 h
[21] = test system: Candida tropicalis; experiment: Antifungal activity against 10^5 CFU/ml Candida tropicalis isolate 6 in antibiotic medium 3 at 12.5 ug/ml treated for 24 hrs followed by incubation in drug free medium for 48 hrs by broth microdilution method; assay type: functional, organism-based
[22] = test system: Candida tropicalis; experiment: Antifungal activity against Candida tropicalis isolate 8 in RPMI 1640 medium assessed as paradoxical growth at 12.5 ug/ml after 48 hrs by broth microdilution method; assay type: functional, organism-based
[23] = test system: Candida tropicalis; experiment: Antifungal activity against > 2 x 10^7 CFU/ml Candida tropicalis isolate 11 in RPMI 1640 medium assessed as partial growth after 24 hrs by broth microdilution method; assay type: functional, organism-based
[24] = test system: Candida tropicalis; experiment: Antifungal activity against > 2 x 10^7 CFU/ml Candida tropicalis isolate 8 in antibiotic medium 3 assessed as partial growth after 24 hrs by broth microdilution method; assay type: functional, organism-based
[25] = test system: Candida tropicalis; experiment: Antifungal activity against 10^5 CFU/ml Candida tropicalis isolate 4 in RPMI 1640 medium at 12.5 ug/ml treated for 48 hrs followed by incubation in drug free medium for 48 hrs by broth microdilution method; assay type: functional, organism-based
[26] = test system: Candida tropicalis; experiment: Antifungal activity against 2 x 10^7 CFU/ml Candida tropicalis isolate 6 in RPMI 1640 medium after 24 hrs by broth microdilution method; assay type: functional; conditions: isolate 6, 24 h
[27] = test system: Candida tropicalis; experiment: Antifungal activity against Candida tropicalis isolate 7 in RPMI 1640 medium assessed as paradoxical growth at 6.25 ug/ml after 24 hrs by broth microdilution method; assay type: functional, organism-based
[28] = test system: Candida tropicalis; experiment: Antifungal activity against 2 x 10^7 CFU/ml Candida tropicalis isolate 15 in antibiotic medium 3 after 24 hrs by broth microdilution method; assay type: functional; conditions: isolate 15, 24 h
[29] = test system: Candida tropicalis; experiment: Antifungal activity against 2 x 10^7 CFU/ml Candida tropicalis isolate 4 in RPMI 1640 medium assessed as paradoxical growth at 12.5 ug/ml after 24 hrs by broth microdilution method; assay type: functional, organism-based
[30] = test system: Candida tropicalis; experiment: Antifungal activity against 10^5 CFU/ml Candida tropicalis isolate 2 in RPMI 1640 medium at =< 0.09 ug/ml after 24 hrs followed by incubation in drug free medium for 48 hrs by broth microdilution method; assay type: functional, organism-based
[31] = test system: Candida tropicalis; experiment: Antifungal activity against Candida tropicalis isolate 15 in RPMI 1640 medium assessed as paradoxical growth at 12.5 ug/ml after 48 hrs by broth microdilution method; assay type: functional, organism-based
[32] = test system: Candida tropicalis; experiment: Antifungal activity against Candida tropicalis ATCC 750 in RPMI 1640 medium assessed as paradoxical growth at 6.25 ug/ml after 24 hrs by broth microdilution method; assay type: functional, organism-based
[33] = test system: Candida tropicalis; experiment: Antifungal activity against 10^5 CFU/ml Candida tropicalis ATCC 750 in RPMI 1640 medium at 0.4 to 12.5 ug/ml treated for 24 hrs followed by incubation in drug free medium for 48 hrs by broth microdilution method; assay type: functional, organism-based
[34] = test system: Candida tropicalis; experiment: Antifungal activity against 2 x 10^7 CFU/ml Candida tropicalis isolate 5 in antibiotic medium 3 after 24 hrs by broth microdilution method; assay type: functional; conditions: isolate 5, 24 h
[35] = test system: Candida tropicalis; experiment: Antifungal activity against 10^5 CFU/ml Candida tropicalis isolate 5 in RPMI 1640 medium at 12.5 ug/ml treated for 24 hrs followed by incubation in drug free medium for 48 hrs by broth microdilution method; assay type: functional, organism-based

SMILES: CC[C@H](C)C[C@H](C)CCCCCCCCC(=O)N[C@H]1C[C@@H](O)[C@@H](NCCN)NC(=O)[C@@H]2[C@@H](O)CCN2C(=O)[C@H]([C@H](O)CCN)NC(=O)[C@H]([C@H](O)[C@@H](O)c2ccc(O)cc2)NC(=O)[C@@H]2C[C@@H](O)CN2C(=O)[C@H]([C@@H](C)O)NC1=O [CASPOFUNGIN]
- MIC [1]: 0.024 µg/mL (≈ 0.022 µM)
- Activity [2]: inactive
- Activity [3]: inactive
- Activity [4]: inactive
- Activity [5]: inactive
- MIC [6]: 0.024 µg/mL (≈ 0.022 µM)
- Activity [7]: inactive
- Activity [8]: inactive
- Activity [9]: inactive
- Activity [10]: inactive
- MIC [11]: 0.024 µg/mL (≈ 0.022 µM)
- MIC [12]: 0.024 µg/mL (≈ 0.022 µM)
- Activity [13]: Active
- MIC [14]: 0.024 µg/mL (≈ 0.022 µM)
- Activity [15]: Active
- Activity [16]: inactive
- Activity [17]: inactive
- MIC [18]: 0.024 µg/mL (≈ 0.022 µM)
- Activity [19]: inactive
- MIC [20]: 0.024 µg/mL (≈ 0.022 µM)
- Activity [21]: inactive
- Activity [22]: inactive
- Activity [23]: inactive
- Activity [24]: inactive
- Activity [25]: inactive
- MIC [26]: 0.024 µg/mL (≈ 0.022 µM)
- Activity [27]: Active
- MIC [28]: 0.024 µg/mL (≈ 0.022 µM)
- Activity [29]: inactive
- Activity [30]: Active
- Activity [31]: Active
- Activity [32]: inactive
- Activity [33]: inactive
- MIC [34]: 0.024 µg/mL (≈ 0.022 µM)
- Activity [35]: inactive
